Where “and” joins values, the source holds several entries; their conditions need not be identical. Identical values can stand only once. Entries after “also recorded” stand apart in the source; their conditions may differ. Each block holds one molecule with its values, some of them ahead of it.
Assays:
[1] = system: primary myoblasts from GSD IV mice; assay: rhGAA on primary myoblasts from GSD IV mice; format: cell-based, mouse
Experimental: Primary myoblast cells were isolated from 7-day-old GSD IV mouse skeletal muscle. Early passage cells were seeded in 10-cm culture dishes with EMEM medium containing 10% FBS. When cells reached 90% confluence, rhGAA was added to the culture medium (final activity=1000 nmol/hr/ml). […]
Reduction of glycogen deposition in GSD IV mouse myoblasts by rhGAA treatment was also confirmed by immunofluorescence staining using a mouse anti-glycogen monoclonal antibody ESG1A9mAb.

[2] = system: primary muscle cells from GSD IIIa patients; assay: rhGAA on primary muscle cells from GSD IIIa patients; format: cell-based, human; conditions: GSD IIIa patient muscle cells
Experimental: FIG. 32 illustrates an analysis of the skeletal muscle biopsies from two GSD IIIa patients, a person (Pt. 1) and a person (Pt. 2). […] (FIG. 32B) Under EM, occasional lysosomal glycogen 1 (identified at the end of arrow) was also seen in the myocytes (scale bar=1 μm). […] (FIG. 32E) GAA activity in normal and patient cells 48 h after adding recombinant human acid alpha-glucosidase (rhGAA, Myozyme*, alglucosidase alfa) treatment. […] The significance of differences between two different groups was assessed using the two-tailed, equal variance student T-test ([…]).

[3] = system: GSD IV mice; assay: rhGAA enzyme replacement therapy in GSD IV mice; format: in vivo, mouse
Experimental: (§1) Methods: A short-term study was conducted to determine the minimum effective dose (MED) of rhGAA treatment with 3 dosages: 20 mg/kg (human equivalent dose, n=6), 40 mg/kg (n=9), and 100 mg/kg (n=8). Male GSD IV mice received weekly intravenous injections of rhGAA were conducted for 4 week starting at age of 10 weeks. A group of age-matched untreated mice (n=8) were used as controls. To prevent anaphylactic reactions, the animals were administered 25 mg/kg diphenhydramine (i.p.) 10-15 min prior to enzyme administration. All mice were sacrificed 48 hours after the last injection following overnight fasting. Fresh tissues were immediately frozen and stored at −80° C. until use for GAA activity and glycogen content analyses. Protein concentration was measured using BCA method.

[4] = system: GSD III mice; assay: rhGAA enzyme replacement therapy in GSD III mice; format: in vivo, mouse
Experimental: as §1, with “GSD III mice were used to test 3 dosages” for “A short-term study was conducted”, “treatment:” for “treatment with 3 dosages:”, “(n=6),” for “(human equivalent dose, n=6),”, “(n=5),” for “(n=9),”, “(n=7). Weekly” for “(n=8). Male GSD IV mice received weekly”

[5] = system: patient with PRKAG2 pathogenic gene mutation; assay: Alglucosidase alfa ERT in a patient with PRKAG2 mutation; format: in vivo, human
Excerpt: A patient was born by caesarian section at 38 weeks gestation as a result of the nuchal cord being wrapped around their neck. The patient was noted to have hypotonia and generalized muscle weakness. They were are flexic and had feeding difficulties. The patient began developing severe lower respiratory infections which led to frequent admissions to the hospital. […] Following numerous recurrent pneumonias, and the history of muscle weakness, the patient's physicians raised Pompe disease as a potential diagnosis. […] Given the early findings of hypotonia and the low GAA enzyme activity, a diagnosis of non-classic infantile Pompe disease was made. The patient was initiated on ERT with alglucosdase alfa at a dose of 20 mg/kg every 2 weeks.
[…], the patient started ERT. They were belly crawling asymmetrically and was unable to achieve sitting from a prone or supine position. Due to weakness in their neck and trunk flexors, the patient consistently sat with their trunk completely collapsed in kyphotic position and their head propped up in capital extension in a chin poke position. […] They were able to crawl more efficiently, to achieve sitting independently from a prone or supine position, and to pull themself up into a standing posture without aid. […] […], the patient was able to walk independently with an age appropriate gait pattern and to climb small steps as well as jump off them without support. They were also able to transition independently into and out of any position, which helped them participate more fully in activities appropriate for their age.
Baseline assessments were done which included tests for AST (44 IU/L; normal range: <45 IU/L), ALT (20 IU/L; normal range: 9-80 IU/L), along with PT measures looking at muscle strength and function measures. […] Upon examination, the patient has developed more defined calf muscles, along with an improvement of […] strength and power. […] has grown physically stronger and has not had episodes in which […] lacks energy for consecutive days, becomes completely floppy, and is unable to hold their head up properly following a seizure.
At baseline, according to the MABC assessment, the patient achieved a Total Test Score of 68 ranking them in the 25th percentile. Five months after reinitiation of ERT, the patient achieved a Total Test Score of 73 on […] MABC assessment, ranking them in the 37th percentile. A minimal detectable change (MDC) for the MABC has been reported as 1.21 points, representing a true change in motor function. The results in this child show an increase of 5 points over 5 months, which is greater than the minimal important difference (MID) of the MABC, which has been reported as a change of 2.5 points shown over 6 months.

[6] = system: G6pc−/− mice; assay: Rapamycin treatment of GSD Ia (G6pc−/−) mice; format: in vivo; conditions: GSD Ia mouse livers, which began at 7-fold the levels of wildtype livers
Experimental: Candidate drugs for restoring autophagy in the GSD Ia liver were evaluated. Rapamycin is known to both have potent effects on activating autophagy as an mTORC1 inhibitor, and to regulate lipid metabolism due to its effect upon mTORC1. GSD Ia mice were treated with rapamycin daily for 7 days prior to evaluating effects upon autophagy and lipid accumulation in the liver.
G6pc−/− mice were given intraperitoneal injections of 5 mg/kg rapamycin suspended in 10% DMSO/90% PBS daily for 7 days starting on day 5 of life.
Treatment was sufficient to normalize G6pc−/− mice to the naturally low WT triglyceride levels.
Hepatic glycogen content was further analyzed using PAS staining to stain for polysaccharides, including glycogen, in liver sections. […] This confirms our hypothesis that manipulating autophagy can reduce glycogen accumulation by breaking it down through alternate routes from the traditional one relying on G6Pase, bypassing the need for G6Pase in GSD Ia hepatocytes.

[7] = rhGAA 1000 nmol/hr/ml, 24 hours
[8] = weekly for 4 weeks at 20, 40 or 100 mg/kg, data not shown
[9] = reassessment 5 months post ERT, initial 3

GAA activity in heart, increase ([3]; 20 mg/kg): 1.7 fold
GAA activity in liver, increase over untreated controls ([3]; 20 mg/kg weekly IV for 4 weeks): 29 folds
decrease of liver glycogen ([3]; 40 mg and 100 mg treatment): 21-25%
GAA activity in heart, increase ([3]; 40 mg/kg): 2.8 fold
change of glycogen content in liver ([3]; 40 mg/kg): −21%
GAA activity in liver, increase over untreated controls ([3]; 40 mg/kg weekly IV for 4 weeks): 48 folds
GAA activity in skeletal muscles, increase ([3]; 100 mg/kg): 1.6 folds
change of glycogen content in liver ([3]; 100 mg/kg): −25%
GAA activity in liver, increase over untreated controls ([3]; 100 mg/kg weekly IV for 4 weeks): 67 folds
GAA activity in quadriceps, increase ([3]; either dosage (20, 40 mg/kg)): negligible
GAA activity in gastrocnemius, increase ([3]; either treated group (20, 40 mg/kg)): less than 1 fold
decrease of liver glycogen ([4]; 40 mg and 100 mg treatment): 24-25%
GAA enzyme uptake, order of GAA activity by tissue ([4]; weekly IV for 4 weeks): liver>heart>diaphragm>leg muscles
Molecule: rhGAA: recombinant human acid alpha-glucosidase (rhGAA, Myozyme, alglucosidase alfa), FDA approved therapy for Pompe disease
reduction of glycogen (immunofluorescence, ESG1A9mAb) ([1]; 4 hours): obvious
reduction of glycogen (immunofluorescence, ESG1A9mAb) ([1]; 24 hours): more evident
decrease of glycogen content [1, 7]: 24%
increase of GAA activity [1, 7]: 50%
glycogen content ([1]; versus untreated cells): significantly reduced glycogen content; also recorded: significantly (p<0.01) reduced
glycogen content [2]: significantly reduced glycogen levels; also recorded: significantly reduced glycogen content; also recorded: significantly reduced glycogen concentration
glycogen content in tissues ([3]; 20 mg/kg): failed to reduce glycogen in any tissue; also recorded: not significant
liver/body weight ratio ([3]; 40 mg/kg, untreated 5.8±0.2%, p<0.05): 5.0±0.2%
plasma alanine aminotransferase (ALT) ([3]; 40 mg/kg, untreated 1029±87 U/L, p<0.01): 650±32 U/L
plasma aspartate aminotransferase (AST) ([3]; 40 mg/kg, untreated 1059±93 U/L, p=0.074): 849±50 U/L
glycogen content in skeletal muscle ([3]; 40 and 100 mg/kg): not in any skeletal muscle
anti-GAA antibodies compared with those reported in GAA-KO mice [3, 8]: significantly less
glycogen content in tissues ([4]; 20 mg treatment): did not affect glycogen content in any tissues
glycogen content in heart ([4]; 40 mg and 100 mg treatments): significantly reduced glycogen contents
glycogen content in liver ([4]; 40 mg and 100 mg treatments): significantly reduced glycogen contents
ratio of liver/body weight ([4]; 40 mg and 100 mg treatments): reduced ratio of liver/body weight
anti-GAA antibodies compared with those reported in GAA-KO mice [4, 8]: significantly less
neurological, occupational therapy and physical therapy reports ([5]; after five months of reinitiated ERT): significant improvement
gross motor abilities ([5]; first ERT course, 20 mg/kg every 2 weeks, three months after initiation): began improving
Movement ABC increase of Total Score ([5]; over 5 months of ERT): 5 points
Movement ABC percentile increase ([5]; over 5 months of ERT): 12
Movement ABC Percentile ([5]; re-assessment 5 months on ERT, pre-ERT 25th percentile): 37 percentile and 37th percentile
Movement ABC Total Score ([5]; re-assessment 5 months on ERT, pre-ERT 68): 73
M-FUN Fine Motor Scaled Score [5, 9]: 5 (considered mild/borderline
M-FUN Gross Motor Scaled Score [5, 9]: 3 (considered very low/severe
M-FUN Visual Motor Scaled Score ([5]; reassessment 5 months post ERT, initial 6): 9 (considered “average” or
M-FUN Gross Motor Progress Score ([5]; reassessment 5 months post ERT, initial 288): 407
M-FUN Fine Motor Progress Score ([5]; reassessment 5 months post ERT, initial 292): 394
M-FUN Visual Motor Progress Score ([5]; reassessment 5 months post ERT, initial 374): 496
fatigue at assessment ([5]; reassessment at five months of ERT): less fatigue

Molecule: CO[C@H]1C[C@@H]2CC[C@@H](C)[C@@](O)(O2)C(=O)C(=O)N2CCCC[C@H]2C(=O)O[C@H]([C@H](C)C[C@@H]2CC[C@@H](O)[C@H](OC)C2)CC(=O)[C@H](C)/C=C(\C)[C@@H](O)[C@@H](OC)C(=O)[C@H](C)C[C@H](C)/C=C/C=C/C=C/1C [Rapamycin, rapamycin]
reduction of hepatic triglycerides [6]: 50%
